Earlier results in article PMC6321136, “Combined In Vitro Studies and in Silico Target Fishing for the Evaluation of the Biological Activities of Diphylleia cymosa and Podophyllum hexandrum” (Molecules, 2018).
Read-outs that look alike come from different tables or passages of the source.

Legend:
[1] = system: 1-acylglycerol-3-phosphate O-acyltransferase ABHD5; design: method as in PubChem Bioassay AID 493035; conditions: ref PubChem Bioassay AID 493035; cited from earlier work
[2] = system: Agonist, glucocorticoid receptor (GR); design: method as in PubChem Bioassay AID 720719; conditions: ref PubChem Bioassay AID 720719; cited from earlier work
[3] = system: Agonist, p53; design: method as in PubChem Bioassay AID 720552; conditions: ref PubChem Bioassay AID 720552; cited from earlier work
[4] = system: Antagonist, androgen receptor (AR); design: method as in PubChem Bioassay AID 743042; conditions: ref PubChem Bioassay AID 743042; cited from earlier work
[5] = system: Anticancer, Colon Tumor; design: method as in PubChem Bioassay AID 771; conditions: ref PubChem Bioassay AID 771; cited from earlier work
[6] = system: Anti-Inflammatory model; design: method as in PubChem Bioassay AID 435020; conditions: ref PubChem Bioassay AID 435020; cited from earlier work
[7] = system: Anti-Inflammatory model; design: method as in PubChem Bioassay AID 602277; conditions: ref PubChem Bioassay AID 602277; cited from earlier work
[8] = system: beta-2 adrenergic receptor; design: method as in PubChem Bioassay AID 504459; conditions: ref PubChem Bioassay AID 504459; cited from earlier work
[9] = system: Chlamydomonas reinhardtii Algae Gravitaxis; design: method as in PubChem Bioassay AID 463189; conditions: ref PubChem Bioassay AID 463189; cited from earlier work
[10] = system: Cytotoxicity, Antagonist, androgen receptor (AR); design: method as in PubChem Bioassay AID 743033; conditions: ref PubChem Bioassay AID 743033; cited from earlier work

COc1cc([C@@H]2c3cc4c(cc3[C@H](O)[C@H]3COC(=O)[C@H]23)OCO4)cc(OC)c1OC [Podophyllotoxin, podophyllotoxin]
Exper. Activity [1]: Inactive | Exper. Activity [2]: Inactive | Exper. Activity [3]: Inactive | Exper. Activity [4]: Inactive | Exper. Activity [5]: Inactive | Exper. Activity [6]: Active | Exper. Activity [7]: Active | Exper. Activity [8]: Inactive | Exper. Activity [9]: Inactive | Exper. Activity [10]: Inactive
